Results as given in US7820623B2 (priority 2006, dated 2010).
Bridge positions count the residues as written; N and C are the ends. Square brackets hold non-standard residues; d marks the D form. Peptide text beside a SMILES is read from it. 1Nal = N[C@@H](Cc1cccc2ccccc12)C(=O)O

Tests used:
[1] = tested on: thapsigargin-induced IFN-g production in human whole blood; assay type: cell-based; details: read-out: Analogue Activity (IC50) WB/IFNg
[2] = tested on: thapsigargin-induced IL-2 production in human whole blood; details: read-out: Analogue Activity (IC50) WB/IL-2

Q: How did the IC50 [1] turn out when `CC[C@H](C)[C@@H]1NC(=O)[C@H](CCCCN)NC(=O)[C@@H](NC(=O)[C@H](CCCCN)NC(=O)[C@@H](NC(=O)[C@H](CC(N)=O)NC(=O)[C@@H](NC(=O)[C@@H](NC(=O)[C@@H](NC(=O)CN)C(C)C)[C@@H](C)CC)[C@@H](C)CC)C(C)C)CSSC[C@@H]2NC(=O)[C@H](CCCCN)NC(=O)CNC(=O)[C@H](Cc3cccc4ccccc34)NC(=O)[C@H](CCCNC(=N)N)NC(=O)[C@H](CCSC)NC(=O)CNC(=O)[C@H](C)NC(=O)[C@H](CCCCN)NC(=O)[C@H](CCCCN)NC(=O)[C@@H]3CSSC[C@@H](C(=O)N[C@H](C(=O)N4CCC[C@H]4C(=O)N[C@@H](CCCCN)C(=O)O)[C@@H](C)O)NC(=O)[C@H](Cc4c[nH]cn4)NC(=O)[C@H](CSSC[C@H](NC(=O)[C@H](CCC(N)=O)NC(=O)[C@H](CCCNC(=N)N)NC(=O)[C@H](CO)NC1=O)C(=O)N[C@@H](CC(C)C)C(=O)N[C@@H](CCC(=O)O)C(=O)N1CCC[C@H]1C(=O)N3)NC(=O)[C@H](CCCCN)NC(=O)CNC(=O)[C@H](CC(N)=O)NC(=O)[C@H](CCSC)NC2=O` [F25Nal] (H-GVIINVKCKISRQCLEPCKKAGMR[1Nal]GKCMNGKCHCTPK-OH; disulfide 8-28, 14-33, 18-35) was run?
A: 1.69 nM

Q: What about the IC50 [2] of the same molecule?
A: 1.73 nM

Q: How did the IC50 [1] turn out when `CC[C@H](C)[C@@H]1NC(=O)[C@H](CCCCN)NC(=O)[C@@H](NC(=O)[C@H](CCCCN)NC(=O)[C@@H](NC(=O)[C@H](CC(N)=O)NC(=O)[C@@H](NC(=O)[C@@H](NC(=O)[C@@H](NC(=O)CN)C(C)C)[C@@H](C)CC)[C@@H](C)CC)C(C)C)CSSC[C@@H]2NC(=O)[C@H](CCCCN)NC(=O)CNC(=O)[C@H](CCCNC(=N)N)NC(=O)[C@H](CCCNC(=N)N)NC(=O)[C@H](CCSC)NC(=O)CNC(=O)[C@H](C)NC(=O)[C@H](CCCCN)NC(=O)[C@H](CCCCN)NC(=O)[C@@H]3CSSC[C@@H](C(=O)N[C@H](C(=O)N4CCC[C@H]4C(=O)N[C@@H](CCCCN)C(=O)O)[C@@H](C)O)NC(=O)[C@H](Cc4c[nH]cn4)NC(=O)[C@H](CSSC[C@H](NC(=O)[C@H](CCC(N)=O)NC(=O)[C@H](CCCNC(=N)N)NC(=O)[C@H](CO)NC1=O)C(=O)N[C@@H](CC(C)C)C(=O)N[C@@H](CCC(=O)O)C(=O)N1CCC[C@H]1C(=O)N3)NC(=O)[C@H](CCCCN)NC(=O)CNC(=O)[C@H](CC(N)=O)NC(=O)[C@H](CCSC)NC2=O` [F25R] (H-GVIINVKCKISRQCLEPCKKAGMRRGKCMNGKCHCTPK-OH; disulfide 8-28, 14-33, 18-35) was run?
A: 31 nM

Q: And the IC50 [2]?
A: 25 nM

Q: With `CC[C@H](C)[C@@H]1NC(=O)[C@H](CCCCN)NC(=O)[C@@H](NC(=O)[C@H](CCCCN)NC(=O)[C@@H](NC(=O)[C@H](CC(N)=O)NC(=O)[C@@H](NC(=O)[C@@H](NC(=O)[C@@H](NC(=O)[C@H](C)N)C(C)C)[C@@H](C)CC)[C@@H](C)CC)C(C)C)CSSC[C@@H]2NC(=O)[C@H](CCCCN)NC(=O)CNC(=O)[C@H](Cc3ccccc3)NC(=O)[C@H](CCCNC(=N)N)NC(=O)[C@H](CCSC)NC(=O)CNC(=O)[C@H](C)NC(=O)[C@H](CCCCN)NC(=O)[C@H](CCCCN)NC(=O)[C@@H]3CSSC[C@@H](C(=O)N[C@H](C(=O)N4CCC[C@H]4C(=O)N[C@@H](CCCCN)C(=O)O)[C@@H](C)O)NC(=O)[C@H](Cc4c[nH]cn4)NC(=O)[C@H](CSSC[C@H](NC(=O)[C@H](CCC(N)=O)NC(=O)[C@H](CCCNC(=N)N)NC(=O)[C@H](CO)NC1=O)C(=O)N[C@@H](CC(C)C)C(=O)N[C@@H](CCC(=O)O)C(=O)N1CCC[C@H]1C(=O)N3)NC(=O)[C@H](CCCCN)NC(=O)CNC(=O)[C@H](CC(N)=O)NC(=O)[C@H](CCSC)NC2=O` [G1A] (H-AVIINVKCKISRQCLEPCKKAGMRFGKCMNGKCHCTPK-OH; disulfide 8-28, 14-33, 18-35) as the molecule, how does the IC50 [1] read?
A: 0.119 nM

Q: And the IC50 [2]?
A: 0.122 nM

Q: `CC[C@H](C)[C@@H]1NC(=O)[C@H](CCCCN)NC(=O)[C@@H](NC(=O)[C@H](CCCCN)NC(=O)[C@@H](NC(=O)[C@H](CC(N)=O)NC(=O)[C@@H](NC(=O)[C@@H](NC(=O)[C@@H](NC(=O)[C@@H](N)CCC(=O)O)C(C)C)[C@@H](C)CC)[C@@H](C)CC)C(C)C)CSSC[C@@H]2NC(=O)[C@H](CCCCN)NC(=O)CNC(=O)[C@H](Cc3ccccc3)NC(=O)[C@H](CCCNC(=N)N)NC(=O)[C@H](CCSC)NC(=O)CNC(=O)[C@H](C)NC(=O)[C@H](CCCCN)NC(=O)[C@H](CCCCN)NC(=O)[C@@H]3CSSC[C@@H](C(=O)N[C@H](C(=O)N4CCC[C@H]4C(=O)N[C@@H](CCCCN)C(=O)O)[C@@H](C)O)NC(=O)[C@H](Cc4c[nH]cn4)NC(=O)[C@H](CSSC[C@H](NC(=O)[C@H](CCC(N)=O)NC(=O)[C@H](CCCNC(=N)N)NC(=O)[C@H](CO)NC1=O)C(=O)N[C@@H](CC(C)C)C(=O)N[C@@H](CCC(=O)O)C(=O)N1CCC[C@H]1C(=O)N3)NC(=O)[C@H](CCCCN)NC(=O)CNC(=O)[C@H](CC(N)=O)NC(=O)[C@H](CCSC)NC2=O` [G1E] (H-EVIINVKCKISRQCLEPCKKAGMRFGKCMNGKCHCTPK-OH; disulfide 8-28, 14-33, 18-35) was tested. Which IC50 [1] did it give?
A: 1.25 nM

Q: And the IC50 [2]?
A: 1.22 nM

Q: `CC[C@H](C)[C@@H]1NC(=O)[C@H](CCCCN)NC(=O)[C@@H](NC(=O)[C@H](CCCCN)NC(=O)[C@@H](NC(=O)[C@H](CC(N)=O)NC(=O)[C@@H](NC(=O)[C@@H](NC(=O)[C@@H](NC(=O)[C@@H](N)CCCNC(=N)N)C(C)C)[C@@H](C)CC)[C@@H](C)CC)C(C)C)CSSC[C@@H]2NC(=O)[C@H](CCCCN)NC(=O)CNC(=O)[C@H](Cc3ccccc3)NC(=O)[C@H](CCCNC(=N)N)NC(=O)[C@H](CCSC)NC(=O)CNC(=O)[C@H](C)NC(=O)[C@H](CCCCN)NC(=O)[C@H](CCCCN)NC(=O)[C@@H]3CSSC[C@@H](C(=O)N[C@H](C(=O)N4CCC[C@H]4C(=O)N[C@@H](CCCCN)C(=O)O)[C@@H](C)O)NC(=O)[C@H](Cc4c[nH]cn4)NC(=O)[C@H](CSSC[C@H](NC(=O)[C@H](CCC(N)=O)NC(=O)[C@H](CCCNC(=N)N)NC(=O)[C@H](CO)NC1=O)C(=O)N[C@@H](CC(C)C)C(=O)N[C@@H](CCC(=O)O)C(=O)N1CCC[C@H]1C(=O)N3)NC(=O)[C@H](CCCCN)NC(=O)CNC(=O)[C@H](CC(N)=O)NC(=O)[C@H](CCSC)NC2=O` [G1R] (H-RVIINVKCKISRQCLEPCKKAGMRFGKCMNGKCHCTPK-OH; disulfide 8-28, 14-33, 18-35) was tested. Which IC50 [1] did it give?
A: 0.991 nM

Q: What about the IC50 [2] of the same molecule?
A: 0.554 nM

Q: For `CC[C@H](C)[C@@H]1NC(=O)[C@H](CCCCN)NC(=O)[C@@H](NC(=O)[C@H](CCCCN)NC(=O)[C@@H](NC(=O)[C@H](CC(N)=O)NC(=O)[C@@H](NC(=O)[C@@H](NC(=O)[C@@H](NC(=O)CN)C(C)C)[C@@H](C)CC)[C@@H](C)CC)C(C)C)CSSC[C@@H]2NC(=O)[C@H](CCCCN)NC(=O)CNC(=O)[C@H](Cc3ccccc3)NC(=O)[C@H](CCCNC(=N)N)NC(=O)[C@H](CCSC)NC(=O)[C@H](CCC(=O)O)NC(=O)[C@H](C)NC(=O)[C@H](CCCCN)NC(=O)[C@H](CCCCN)NC(=O)[C@@H]3CSSC[C@@H](C(=O)N[C@H](C(=O)N4CCC[C@H]4C(=O)N[C@@H](CCCCN)C(=O)O)[C@@H](C)O)NC(=O)[C@H](Cc4c[nH]cn4)NC(=O)[C@H](CSSC[C@H](NC(=O)[C@H](CCC(N)=O)NC(=O)[C@H](CCCNC(=N)N)NC(=O)[C@H](CO)NC1=O)C(=O)N[C@@H](CC(C)C)C(=O)N[C@@H](CCC(=O)O)C(=O)N1CCC[C@H]1C(=O)N3)NC(=O)[C@H](CCCCN)NC(=O)CNC(=O)[C@H](CC(N)=O)NC(=O)[C@H](CCSC)NC2=O` [G22E] (H-GVIINVKCKISRQCLEPCKKAEMRFGKCMNGKCHCTPK-OH; disulfide 8-28, 14-33, 18-35), which IC50 [1] is on record?
A: 0.164 nM

Q: What about the IC50 [2] of the same molecule?
A: 0.109 nM

Q: Which results are given for `CC[C@H](C)[C@@H]1NC(=O)[C@H](CCCCN)NC(=O)[C@@H](NC(=O)[C@H](CCCCN)NC(=O)[C@@H](NC(=O)[C@H](CC(N)=O)NC(=O)[C@@H](NC(=O)[C@@H](NC(=O)[C@@H](NC(=O)CN)C(C)C)[C@@H](C)CC)[C@@H](C)CC)C(C)C)CSSC[C@@H]2NC(=O)[C@H](CCCCN)NC(=O)CNC(=O)[C@H](Cc3ccccc3)NC(=O)[C@H](CCCNC(=N)N)NC(=O)[C@H](CCSC)NC(=O)[C@H](Cc3cccc4ccccc34)NC(=O)[C@H](C)NC(=O)[C@H](CCCCN)NC(=O)[C@H](CCCCN)NC(=O)[C@@H]3CSSC[C@@H](C(=O)N[C@H](C(=O)N4CCC[C@H]4C(=O)N[C@@H](CCCCN)C(=O)O)[C@@H](C)O)NC(=O)[C@H](Cc4c[nH]cn4)NC(=O)[C@H](CSSC[C@H](NC(=O)[C@H](CCC(N)=O)NC(=O)[C@H](CCCNC(=N)N)NC(=O)[C@H](CO)NC1=O)C(=O)N[C@@H](CC(C)C)C(=O)N[C@@H](CCC(=O)O)C(=O)N1CCC[C@H]1C(=O)N3)NC(=O)[C@H](CCCCN)NC(=O)CNC(=O)[C@H](CC(N)=O)NC(=O)[C@H](CCSC)NC2=O` [G22Nal] (H-GVIINVKCKISRQCLEPCKKA[1Nal]MRFGKCMNGKCHCTPK-OH; disulfide 8-28, 14-33, 18-35)?
A: IC50 [1]: 10.6 nM; IC50 [2]: 10.3 nM

Q: Which IC50 [1] does the source give for `CC[C@H](C)[C@@H]1NC(=O)[C@H](CCCCN)NC(=O)[C@@H](NC(=O)[C@H](CCCCN)NC(=O)[C@@H](NC(=O)[C@H](CC(N)=O)NC(=O)[C@@H](NC(=O)[C@@H](NC(=O)[C@@H](NC(=O)CN)C(C)C)[C@@H](C)CC)[C@@H](C)CC)C(C)C)CSSC[C@@H]2NC(=O)[C@H](CCCCN)NC(=O)CNC(=O)[C@H](Cc3ccccc3)NC(=O)[C@H](CCCNC(=N)N)NC(=O)[C@H](CCSC)NC(=O)[C@H](CCCNC(=N)N)NC(=O)[C@H](C)NC(=O)[C@H](CCCCN)NC(=O)[C@H](CCCCN)NC(=O)[C@@H]3CSSC[C@@H](C(=O)N[C@H](C(=O)N4CCC[C@H]4C(=O)N[C@@H](CCCCN)C(=O)O)[C@@H](C)O)NC(=O)[C@H](Cc4c[nH]cn4)NC(=O)[C@H](CSSC[C@H](NC(=O)[C@H](CCC(N)=O)NC(=O)[C@H](CCCNC(=N)N)NC(=O)[C@H](CO)NC1=O)C(=O)N[C@@H](CC(C)C)C(=O)N[C@@H](CCC(=O)O)C(=O)N1CCC[C@H]1C(=O)N3)NC(=O)[C@H](CCCCN)NC(=O)CNC(=O)[C@H](CC(N)=O)NC(=O)[C@H](CCSC)NC2=O` [G22R] (H-GVIINVKCKISRQCLEPCKKARMRFGKCMNGKCHCTPK-OH; disulfide 8-28, 14-33, 18-35) here?
A: 0.349 nM

Q: What about the IC50 [2] of the same molecule?
A: 0.292 nM
